Test results from patent publication US9999619B2, “Piperidin-4-yl azetidine derivatives as JAK1 inhibitors” (Incyte Corporation, priority 2010, dated 2018).
Where a name gives a salt, the structure may show the parent alone.

Tests used:
Type in all cases: biochemical
[1] = target: human JAK1 (a.a. 837-1142) (Homo sapiens, UniProt P23458); assay: In vitro JAK kinase assay (HTRF, phosphorylation of a biotinylated peptide), JAK1; conditions: measured at 1 mM ATP
Description: (§1) Compounds herein were tested for inhibitory activity of JAK targets according to the following in vitro assay described in Park et al., Analytical Biochemistry 1999, 269, 94-104. The catalytic domains of human JAK1 (a.a. 837-1142), Jak2 (a.a. 828-1132) and Jak3 (a.a. 781-1124) with an N-terminal His tag were expressed using baculovirus in insect cells and purified. The catalytic activity of JAK1, JAK2 or JAK3 was assayed by measuring the phosphorylation of a biotinylated peptide. The phosphorylated peptide was detected by homogenous time resolved fluorescence (HTRF). […] Reactions were carried out at room temperature for 1 hr and then stopped with 20 μL 45 mM EDTA, 300 nM SA-APC, 6 nM Eu-Py20 in assay buffer (Perkin Elmer, Boston, Mass.). Binding to the Europium labeled antibody took place for 40 minutes and HTRF signal was measured on a Fusion plate reader (Perkin Elmer, Boston, Mass.).

[2] = target: human JAK1 (a.a. 837-1142); assay: as above; conditions: ratio of JAK2 IC50 to JAK1 IC50, measured at 1 mM ATP
Description: as §1

Jak2 (a.a. 828-1132) = Jak2 (a.a. 828-1132) (Homo sapiens (Human), UniProt O60674); assay: In vitro JAK kinase assay (HTRF, phosphorylation of a biotinylated peptide), JAK2; conditions: measured at 1 mM ATP
Sequence of Jak2 (a.a. 828-1132) (O60674 828-1132): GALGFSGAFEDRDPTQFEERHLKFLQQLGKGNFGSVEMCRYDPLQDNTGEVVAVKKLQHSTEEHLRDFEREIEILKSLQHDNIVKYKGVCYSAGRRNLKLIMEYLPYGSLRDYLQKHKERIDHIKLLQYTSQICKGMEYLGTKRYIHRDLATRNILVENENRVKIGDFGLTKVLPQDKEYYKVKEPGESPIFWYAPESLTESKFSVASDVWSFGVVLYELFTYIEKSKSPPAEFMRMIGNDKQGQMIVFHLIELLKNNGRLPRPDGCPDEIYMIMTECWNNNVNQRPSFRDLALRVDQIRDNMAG
Description: as §1

| SMILES | IC50 [1] [nM] | IC50 Ratio JAK2/JAK1 [2] | IC50 (Jak2 (a.a. 828-1132)) [nM] |
| --- | --- | --- | --- |
| N#CCC1(n2cc(-c3ccnc4[nH]ccc34)cn2)CN(C2CCN(C(=O)Nc3ccccc3Cl)CC2)C1 [Example 310, N-(2-chlorophenyl)-4-{3-(cyanomethyl)-3-[4-(1H-pyrrolo[2,3-b]pyridin-4-yl)-1H-pyrazol-1-yl]azetidin-1-yl}piperidine-1-carboxamide] | ≤ 5 | 9.0 | 10 to 50 |
| N#CCC1(n2cc(-c3ncnc4[nH]ccc34)cn2)CN(C2CCN(C(=O)Nc3ccc(Cl)cc3F)CC2)C1 [Example 178, N-(4-chloro-2-fluorophenyl)-4-{3-(cyanomethyl)-3-[4-(7H-pyrrolo[2,3-d]pyrimidin-4-yl)-1H-pyrazol-1-yl]azetidin-1-yl}piperidine-1-carboxamide] | ≤ 5 | 6.5 | ≤ 10 |
| N#CCC1(n2cc(-c3ncnc4[nH]ccc34)cn2)CN(C2CCN(C(=O)Cc3ccccc3)CC2)C1 [Example 109, {1-[1-(phenylacetyl)piperidin-4-yl]-3-[4-(7H-pyrrolo[2,3-d]pyrimidin-4-yl)-1H-pyrazol-1-yl]azetidin-3-yl}acetonitrile] | 20 to 30 | 1.1 | 10 to 50 |
| N#CCC1(n2cc(-c3ncnc4[nH]ccc34)cn2)CN(C2CCN(C(=O)C3CCC(c4ccc(Cl)cc4)CC3)CC2)C1 (stereo not drawn) [Example 105, {1-(1-{[4-(4-chlorophenyl)cyclohexyl]carbonyl}piperidin-4-yl)-3-[4-(7H-pyrrolo[2,3-d]pyrimidin-4-yl)-1H-pyrazol-1-yl]azetidin-3-yl}acetonitrile] | 5 to 20 | 7.2 | > 100 |
| N#CCC1(n2cc(-c3ncnc4[nH]ccc34)cn2)CN(C2CC3CCC(C2)N3C(=O)c2ccc(C(F)(F)F)nc2)C1 (stereo not drawn) [Example 143, [3-[4-(7H-pyrrolo[2,3-d]pyrimidin-4-yl)-1H-pyrazol-1-yl]-1-(8-{[6-(trifluoromethyl)pyridin-3-yl]carbonyl}-8-azabicyclo[3.2.1]oct-3-yl)azetidin-3-yl]acetonitrile] | 5 to 20 | 3.5 | 10 to 50 |
| N#CCC1(n2cc(-c3c(F)cnc4[nH]ccc34)cn2)CN(C2CCN(C(=O)c3cncc(C(F)(F)F)n3)CC2)C1 [Example 352, [3-[4-(5-Fluoro-1H-pyrrolo[2,3-b]pyridin-4-yl)-1H-pyrazol-1-yl]-1-(1-{[6-(trifluoromethyl)pyrazin-2-yl]carbonyl}piperidin-4-yl)azetidin-3-yl]acetonitrile] | ≤ 5 | 18.8 | 10 to 50 |
| N#CCC1(n2ccc(-c3ncnc4[nH]ccc34)c2)CN(C2CCN(C(=O)c3cc(C(F)(F)F)ccc3F)CC2)C1 [Example 273, {1-{1-[2-fluoro-5-(trifluoromethyl)benzoyl]piperidin-4-yl}-3-[3-(7H-pyrrolo[2,3-d]pyrimidin-4-yl)-1H-pyrrol-1-yl]azetidin-3-yl}acetonitrile] | ≤ 5 | 4.4 | ≤ 10 |
| N#CCC1(n2cc(-c3ncnc4[nH]ccc34)cn2)CN(C2CCN(C(=O)Nc3ncc(F)cc3F)CC2)C1 [Example 203, 4-{3-(cyanomethyl)-3-[4-(7H-pyrrolo[2,3-d]pyrimidin-4-yl)-1H-pyrazol-1-yl]azetidin-1-yl}-N-(3,5-difluoropyridin-2-yl)piperidine-1-carboxamide] | 5 to 20 | 8.6 | 50 to 100 |
| COc1ccc(CN2CCC(N3CC(CC#N)(n4cc(-c5ncnc6[nH]ccc56)cn4)C3)CC2)c(Cl)c1OC [Example 239, {1-[1-(2-chloro-3,4-dimethoxybenzyl)piperidin-4-yl]-3-[4-(7H-pyrrolo[2,3-d]pyrimidin-4-yl)-1H-pyrazol-1-yl]azetidin-3-yl}acetonitrile] | 5 to 20 | 2.3 | 10 to 50 |
| N#CCC1(n2cc(-c3ncnc4[nH]ccc34)cn2)CN(C2CCN(C(=O)c3ccc(-c4ccc5cccnc5c4)c(F)c3)CC2)C1 [Example 134, {1-[1-(3-fluoro-4-quinolin-7-ylbenzoyl)piperidin-4-yl]-3-[4-(7H-pyrrolo[2,3-d]pyrimidin-4-yl)-1H-pyrazol-1-yl]azetidin-3-yl}acetonitrile] | ≤ 5 | 6.7 | 10 to 50 |
| N#CCC1(n2cc(-c3ncnc4[nH]ccc34)cn2)CN(C2CCN(Cc3cccc(Oc4ccccc4)c3)CC2)C1 [Example 233, {1-[1-(3-phenoxybenzyl)piperidin-4-yl]-3-[4-(7H-pyrrolo[2,3-d]pyrimidin-4-yl)-1H-pyrazol-1-yl]azetidin-3-yl}acetonitrile] | 20 to 30 | 2.2 | 50 to 100 |
| N#CCC1(n2cc(-c3ncnc4[nH]ccc34)cn2)CN(C2C3COCC2CN(C(=O)c2ccnc(C(F)(F)F)c2F)C3)C1 (stereo not drawn) [Example 365, {1-{7-[3-Fluoro-2-(trifluoromethyl)isonicotinoyl]-3-oxa-7-azabicyclo[3.3.1]non-9-yl}-3-[4-(7H-pyrrolo[2,3-d]pyrimidin-4-yl)-1H-pyrazol-1-yl]azetidin-3-yl}acetonitrile] | ≤ 5 | 15.5 | 10 to 50 |
| COc1ccc(C(=O)N2CCC(N3CC(CC#N)(n4cc(-c5ncnc6[nH]ccc56)cn4)C3)CC2)cc1C#N [Example 55, 5-[(4-{3-(cyanomethyl)-3-[4-(7H-pyrrolo[2,3-d]pyrimidin-4-yl)-1H-pyrazol-1-yl]azetidin-1-yl}piperidin-1-yl)carbonyl]-2-methoxybenzonitrile] | ≤ 5 | 7.5 | 10 to 50 |
| N#CCC1(n2cc(-c3ncnc4[nH]ccc34)cn2)CN(C2CCN(C(=O)c3cc(CN4CC[C@@H](F)C4)nc(C(F)(F)F)n3)CC2)C1 [Example 378, {1-(1-{[6-{[(3R)-3-fluoropyrrolidin-1-yl]methyl}-2-(trifluoromethyl)pyrimidin-4-yl]carbonyl}piperidin-4-yl)-3-[4-(7H-pyrrolo[2,3-d]pyrimidin-4-yl)-1H-pyrazol-1-yl]azetidin-3-yl}acetonitrile (trifluoroacetate salt: 4 TFA)] | ≤ 5 | 32.7 | 10 to 50 |
| N#CCC1(n2cc(-c3ncnc4[nH]ccc34)cn2)CN(C2CCN(Cc3ccnc(C(F)(F)F)c3F)CC2)C1 [Example 231, {1-(1-{[3-fluoro-2-(trifluoromethyl)pyridin-4-yl]methyl}piperidin-4-yl)-3-[4-(7H-pyrrolo[2,3-d]pyrimidin-4-yl)-1H-pyrazol-1-yl]azetidin-3-yl}acetonitrile] | 5 to 20 | 5.1 | 50 to 100 |
| CN(C)Cc1cc(C#N)cc(C(=O)N2CCC(N3CC(CC#N)(n4cc(-c5ncnc6[nH]ccc56)cn4)C3)CC2)c1 [Example 369, 3-[(4-{3-(cyanomethyl)-3-[4-(7H-pyrrolo[2,3-d]pyrimidin-4-yl)-1H-pyrazol-1-yl]azetidin-1-yl}piperidin-1-yl)carbonyl]-5-[(dimethylamino)methyl]benzonitrile] | ≤ 5 | 43.8 | > 100 |
| COc1ccc(F)cc1C(=O)N1CCC(N2CC(CC#N)(n3cc(-c4ncnc5[nH]ccc45)cn3)C2)CC1 [Example 38, {1-[1-(5-fluoro-2-methoxybenzoyl)piperidin-4-yl]-3-[4-(7H-pyrrolo[2,3-d]pyrimidin-4-yl)-1H-pyrazol-1-yl]azetidin-3-yl}acetonitrile] | ≤ 5 | 5.7 | ≤ 10 |
| N#CCC1(n2cc(-c3c(C#N)cnc4[nH]ccc34)cn2)CN(C2CCN(C(=O)c3cc(Br)ccc3Br)CC2)C1 [Example 335, 4-(1-{3-(cyanomethyl)-1-[1-(2,5-dibromobenzoyl)piperidin-4-yl]azetidin-3-yl}-1H-pyrazol-4-yl)-1H-pyrrolo[2,3-b]pyridine-5-carbonitrile] | ≤ 5 | 2.4 | ≤ 10 |
| COc1ncccc1NC(=O)N1CCC(N2CC(CC#N)(n3ccc(-c4ncnc5[nH]ccc45)c3)C2)CC1 [Example 284, 4-{3-(cyanomethyl)-3-[3-(7H-pyrrolo[2,3-d]pyrimidin-4-yl)-1H-pyrrol-1-yl]azetidin-1-yl}-N-(2-methoxypyridin-3-yl)piperidine-1-carboxamide] | ≤ 5 | 5.8 | 10 to 50 |
| Cc1ccc(Cl)cc1NC(=O)N1CCC(N2CC(CC#N)(n3cc(-c4ncnc5[nH]ccc45)cn3)C2)CC1 [Example 168, N-(5-chloro-2-methylphenyl)-4-{3-(cyanomethyl)-3-[4-(7H-pyrrolo[2,3-d]pyrimidin-4-yl)-1H-pyrazol-1-yl]azetidin-1-yl}piperidine-1-carboxamide] | ≤ 5 | 2.6 | ≤ 10 |
| N#CCC1(n2cc(-c3ncnc4[nH]ccc34)cn2)CN(C2CCN(C(=O)c3ccccc3)CC2)C1 [Example 9, {1-(1-benzoylpiperidin-4-yl)-3-[4-(7H-pyrrolo[2,3-d]pyrimidin-4-yl)-1H-pyrazol-1-yl]azetidin-3-yl}acetonitrile] | ≤ 5 | 3.2 | 10 to 50 |
